Results from US10364222B2, “Cyclic amine derivative and medical use thereof” (Toray Industries, Inc., priority 2016, dated 2019).

Columns and labels:
[1] = system: IL-17 production in mouse splenocytes; assay: Suppressive effect on IL-17 production by IL-23 stimulation in mouse splenocytes; type: cell-based; settings: Splenocyte, 72 h, at 5 μmol/L of the test compound, 10 ng/mL human IL-23, 3 days, read-out: IL-17 production inhibition rate (%)
Procedure: Using mouse splenocytes, the suppressive effect of the cyclic amine derivative (I) or a pharmacologically acceptable salt thereof on IL-17 production by IL-23 stimulation was evaluated by a partially modified method mentioned in The Journal of Biological Chemistry, 2003, Vol. 278, No. 3, p. 1910-1914.
A single cell suspension was prepared from the spleen of C57BL/6J mice (male, 7 to 23 weeks old) (Charles River Laboratories Japan, Inc.) and splenocytes were prepared using Histopaque-1083 (Sigma-Aldrich Japan). The culture medium was used by adding 10% FBS (Gibco), 50 U/mL of penicillin 50 μg/mL of streptomycin (Gibco), 50 μmol/L of 2-mercaptoethanol (Gibco), and 100 U/mL of human IL-2 (Cell Science & Technology Institute, Inc.) to RPMI1640 medium (Gibco). The test compound was dissolved in DMSO and then diluted with the culture medium to have a final concentration of DMSO of 0.1% before use. Splenocytes (3×10^5 cells/well) prepared in the culture medium were seeded in wells of a 96-well flat-bottom plate (Corning Incorporated), the test compound and 10 ng/mL of human IL-23 (R & D systems, Inc.) were added thereto, and the cells were cultured at 37° C. under 5% CO2 for 3 days. A well without addition of human IL-23 and without addition of the test compound and a well with addition of human IL-23 and without addition of the test compound were prepared. After completion of the culture, the culture supernatant was collected and the IL-17 production amount in the supernatant was determined by ELISA method (R & D systems, Inc.).
The IL-17 production inhibition rate (%) was calculated from Formula 2. IL-17 production inhibition rate(%)=(1−((IL-17 production amount with addition of IL-23 and with addition of the test compound)−(IL-17 production amount without addition of IL-23 and without addition of the test compound))/((IL-17 production amount with addition of IL-23 and without addition of the test compound)−(IL-17 production amount without addition of IL-23 and without addition of the test compound)))×100 Formula 2

[2] = target: T1, ligand-binding domain of RORγ (RORγ-LBD) (Homo sapiens, UniProt P51449); assay: Inhibitory effect on RORγ-coactivator binding (LanthaScreen TR-FRET RORγ Coactivator Assay); settings: at 33 μmol/L of the test compound; read-out: RORγ-coactivator binding inhibition rate (%)
T1 construct: purchased Invitrogen
T1 sequence (P51449 269-508 limits assumed): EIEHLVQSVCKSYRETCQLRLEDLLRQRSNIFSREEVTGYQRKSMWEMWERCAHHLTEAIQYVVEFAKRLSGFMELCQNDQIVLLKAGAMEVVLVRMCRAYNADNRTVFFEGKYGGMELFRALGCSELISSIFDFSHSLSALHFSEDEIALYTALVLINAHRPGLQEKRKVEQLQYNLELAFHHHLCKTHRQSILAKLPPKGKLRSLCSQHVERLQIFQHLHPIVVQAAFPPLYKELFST
Procedure: The inhibitory effect of the cyclic amine derivative (I) or a pharmacologically acceptable salt thereof on the binding between a ligand-binding domain of RORγ (hereinafter referred to as RORγ-LBD) and a coactivator was evaluated using Invitrogen's LanthaScreen™TR-FRET Retinoid-Related Orphan Receptor (ROR) gamma Coactivator Assay kit utilizing time-resolved fluorescence energy transfer (TR-FRET).
The test compound was dissolved in DMSO and diluted with TR-FRET Coregulator Buffer D (Invitrogen) containing 5 mmol/L of DTT to have a final DMSO concentration of 1% before use. To each well of a 384-well black plate (Corning Inc.), 4 nmol/L of GST-fused RORγ-LBD (Invitrogen) diluted with the buffer mentioned above and the test compound were added. A well without addition of the test compound and without addition of GST-fused RORγ-LBD (background) and a well without addition of the test compound and with addition of GST-fused RORγ-LBD (control) were prepared. Next, 150 nmol/L of fluorescein-labeled TRAP220/DRIP-2 (Invitrogen) diluted with the buffer mentioned above and 32 nmol/L of terbium-labeled anti-GST antibody (Invitrogen) were added to each well. After incubating the plate at room temperature for 16 to 24 hours, the fluorescence at 495 nm and 520 nm when excited at 320 nm was measured for each well and the ratio (fluorescence value at 520 nm/fluorescence value at 495 nm) was calculated.
The fold change with addition of the test compound (ratio with addition of the test compound/ratio of the background), the fold change of the control (ratio of the control/ratio of the background), and the fold change of the background (ratio of the background/ratio of the background) were calculated, and then the inhibition rate of binding between RORγ-LBD and a coactivator (hereinafter referred to as RORγ-coactivator binding inhibition rate) (%) was calculated from Formula 1: RORγ-coactivator binding inhibition rate(%)=(1−((Fold change with addition of the test compound)−(Fold change of the background))/((Fold change of the control)−(Fold change of the background)))×100 Formula 1

Structure (SMILES) | inhibition at 5 µM [1] | inhibition at 33 µM [2]
COCC(=O)N1CCCCC1C(=O)Nc1ccc(-c2ccccc2OC(F)(F)F)c(Cl)c1 (stereo not drawn) [Example 4, N-(2-chloro-2′-(trifluoromethoxy)-[1,1′-biphenyl]-4-yl)-1-(2-methoxyacetyl)piperidine-2-carboxamide] | 99.7% | 90.3%
O=C(Nc1ccc(-c2ccccc2OC(F)(F)F)c(Cl)c1)C1CCCCN1C(=O)CO (stereo not drawn) [Example 5, N-(2-chloro-2′-(trifluoromethoxy)-[1,1′-biphenyl]-4-yl)-1-(2-hydroxyacetyl)piperidine-2-carboxamide] | 99.5% | 96.9%
O=C(Nc1ccc(-c2ccccc2OC(F)(F)F)c(Cl)c1)C1CCCCN1C(=O)COC(F)(F)F (stereo not drawn) [Example 8, N-(2-chloro-2′-(trifluoromethoxy)-[1,1′-biphenyl]-4-yl)-1-(2-(trifluoromethoxy)acetyl)piperidine-2-carboxamide] | 99.2% | 95.2%
CS(=O)(=O)NCC(=O)N1CCCCC1C(=O)Nc1ccc(-c2ccccc2OC(F)(F)F)c(Cl)c1 (stereo not drawn) [Example 10, N-(2-chloro-2′-(trifluoromethoxy)-[1,1′-biphenyl]-4-yl)-1-(2-(methylsulfonamide)acetyl)piperidine-2-carboxamide] | 98.6% | 100%
CN(CC(=O)N1CCCCC1C(=O)Nc1ccc(-c2ccccc2OC(F)(F)F)c(Cl)c1)S(C)(=O)=O (stereo not drawn) [Example 13, N-(2-chloro-2′-(trifluoromethoxy)-[1,1′-biphenyl]-4-yl)-1-(2-(N-methylmethylsulfonamide)acetyl)piperidine-2-carboxamide] | 98.2% | 101%
CCS(=O)(=O)N1CCCCC1C(=O)Nc1ccc(-c2ccccc2OC(F)(F)F)c(Cl)c1 (stereo not drawn) [Example 14, N-(2-chloro-2′-(trifluoromethoxy)-[1,1′-biphenyl]-4-yl)-1-(ethylsulfonyl)piperidine-2-carboxamide] | 90.5% | 94%
CS(=O)(=O)N1CCCCC1C(=O)Nc1ccc(-c2ccccc2OC(F)(F)F)c(Cl)c1 (stereo not drawn) [Example 15, N-(2-chloro-2′-(trifluoromethoxy)-[1,1′-biphenyl]-4-yl)-1-(methylsulfonyl)piperidine-2-carboxamide] | 99.4% | 100%
O=CN1CCCCC1C(=O)Nc1ccc(-c2ccccc2OC(F)(F)F)c(Cl)c1 (stereo not drawn) [Example 16, N-(2-chloro-2′-(trifluoromethoxy)-[1,1′-biphenyl]-4-yl)-1-formylpiperidine-2-carboxamide] | 98% | 99.3%
NC(=O)N1CCCCC1C(=O)Nc1ccc(-c2ccccc2OC(F)(F)F)c(Cl)c1 (stereo not drawn) [Example 17, N^2-(2-chloro-2′-(trifluoromethoxy)-[1,1′-biphenyl]-4-yl)piperidine-1,2-dicarboxamide] | 91.8% | 93.8%
CN(C)C(=O)N1CCCCC1C(=O)Nc1ccc(-c2ccccc2OC(F)(F)F)c(Cl)c1 (stereo not drawn) [Example 18, N^2-(2-chloro-2′-(trifluoromethoxy)-[1,1′-biphenyl]-4-yl)-N^1,N^1-dimethylpiperidine-1,2-dicarboxamide] | 90.8% | 95.9%
COC(=O)N1CCCCC1C(=O)Nc1ccc(-c2ccccc2OC(F)(F)F)c(Cl)c1 (stereo not drawn) [Example 19, methyl 2-((2-chloro-2′-(trifluoromethoxy)-[1,1′-biphenyl]-4-yl)carbamoyl)piperidine-1-carboxylate] | 99.8% | 93.4%
CS(=O)(=O)N1CCCC[C@@H]1C(=O)Nc1ccc(-c2ccccc2OC(F)(F)F)c(Cl)c1 [Example 21, (R)-N-(2-chloro-2′-(trifluoromethoxy)-[1,1′-biphenyl]-4-yl)-1-(methylsulfonyl)piperidine-2-carboxamide] | 99.8% | 98.2%
NC(=O)N1CCCC[C@@H]1C(=O)Nc1ccc(-c2ccccc2OC(F)(F)F)c(Cl)c1 [Example 22, (R)-N^2-(2-chloro-2′-(trifluoromethoxy)-[1,1′-biphenyl]-4-yl)piperidine-1,2-dicarboxamide] | 98.1% | 92.4%
O=C(Nc1ccc(-c2ccccc2OC(F)(F)F)c(Cl)c1)[C@H]1CCCCN1C(=O)C(F)(F)F [Example 23, (R)-N-(2-chloro-2′-(trifluoromethoxy)-[1,1′-biphenyl]-4-yl)-1-(2,2,2-trifluoroacetyl)piperidine-2-carboxamide] | 99.4% | 98.4%
CC(=O)N1CC[C@@H](F)C[C@@H]1C(=O)Nc1ccc(-c2ccccc2OC(F)(F)F)c(Cl)c1 [Example 25, (2R,4R)-1-acetyl-N-(2-chloro-2′-(trifluoromethoxy)-[1,1′-biphenyl]-4-yl)-4-fluoropiperidine-2-carboxamide] | 99.4% | 94.2%
CS(=O)(=O)N1CCC(F)(F)C[C@@H]1C(=O)Nc1ccc(-c2ccccc2OC(F)(F)F)c(Cl)c1 [Example 28, (R)-N-(2-chloro-2′-(trifluoromethoxy)-[1,1′-biphenyl]-4-yl)-4,4-difluoro-1-(methylsulfonyl)piperidine-2-carboxamide] | 98.6% | 101%
CS(=O)(=O)NCCC(=O)N1CCCCC1C(=O)Nc1ccc(-c2ccccc2OC(F)(F)F)c(Cl)c1 (stereo not drawn) [Example 32, N-(2-chloro-2′-(trifluoromethoxy)-[1,1′-biphenyl]-4-yl)-1-(3-(methylsulfonamide)propanoyl)piperidine-2-carboxamide] | 98.8% | 94.7%
CN(CCC(=O)N1CCCCC1C(=O)Nc1ccc(-c2ccccc2OC(F)(F)F)c(Cl)c1)S(C)(=O)=O (stereo not drawn) [Example 36, N-(2-chloro-2′-(trifluoromethoxy)-[1,1′-biphenyl]-4-yl)-1-(3-(N-methylmethylsulfonamide)propanoyl)piperidine-2-carboxamide] | 96.9% | 97.2%
CCN(CC(=O)N1CCCCC1C(=O)Nc1ccc(-c2ccccc2OC(F)(F)F)c(Cl)c1)S(C)(=O)=O (stereo not drawn) [Example 37, N-(2-chloro-2′-(trifluoromethoxy)-[1,1′-biphenyl]-4-yl)-1-(2-(N-ethylmethylsulfonamide)acetyl)piperidine-2-carboxamide] | 99.1% | 104%
CSCCC(=O)N1CCCCC1C(=O)Nc1ccc(-c2ccccc2OC(F)(F)F)c(Cl)c1 (stereo not drawn) [Example 39, N-(2-chloro-2′-(trifluoromethoxy)-[1,1′-biphenyl]-4-yl)-1-(3-(methylthio)propanoyl)piperidine-2-carboxamide] | 99.2% | 98.8%
CS(=O)(=O)CCC(=O)N1CCCCC1C(=O)Nc1ccc(-c2ccccc2OC(F)(F)F)c(Cl)c1 (stereo not drawn) [Example 40, N-(2-chloro-2′-(trifluoromethoxy)-[1,1′-biphenyl]-4-yl)-1-(3-(methylsulfonyl)propanoyl)piperidine-2-carboxamide] | 98.2% | 98.7%
